The record followed here is ChEMBL document CHEMBL3046950, “Insecticide resistance traits differ among and within host races in Aphis gossypii” (2010).

Assay [1] has as its system Aphis gossypii. In words: Insecticidal activity against Aphis gossypii clone Burk (cotton aphid) in egg plant leaf assessed as mortality after 24 hr by leaf disk assay in presence of piperonyl butoxide. In kind it is functional.
The subject of assay [2] is Aphis gossypii. In words: Insecticidal activity against Aphis gossypii clone Auber (cotton aphid) in egg plant leaf assessed as mortality after 24 hr by leaf disk assay in presence of piperonyl butoxide. The class given is functional.
Assay [3] relates to Aphis gossypii. In words: Insecticidal activity against Aphis gossypii clone Auber (cotton aphid) in egg plant leaf assessed as mortality after 24 hr by leaf disk assay in presence of S,S,S-tri-n-butyl phosphorotrithioate. The class given is functional.
For assay [4], the system named is Aphis gossypii. Put plainly: Insecticidal activity against Aphis gossypii clone NM1 (cotton aphid) in zucchini or squash leaf assessed as mortality after 24 hr by leaf disk assay in presence of S,S,S-tri-n-butyl phosphorotrithioate. The class given is functional.
Assay [5] concerns Aphis gossypii. In words: Insecticidal activity against Aphis gossypii clone NM1 (cotton aphid) in zucchini or squash leaf assessed as mortality after 24 hr by leaf disk assay in presence of piperonyl butoxide. The class given is functional.
For assay [6], the system named is Aphis gossypii. The class given is functional.
Assay [7] deals with Aphis gossypii. In kind it is functional. The source holds these as a separate data set.
The subject of assay [8] is Aphis gossypii. In kind it is functional. The source holds these as a separate data set.
Assay [9] deals with Aphis gossypii. Put plainly: Synergist ratio, ratio of LC50 for Aphis gossypii clone Burk (cotton aphid) in presence of S,S,S-tri-n-butyl phosphorotrithioate to LC50 for Aphis gossypii clone Burk. In kind it is functional.
Assay [10] deals with Aphis gossypii. In words: Synergist ratio, ratio of LC50 for Aphis gossypii clone Burk (cotton aphid) in presence of piperonyl butoxide to LC50 for Aphis gossypii clone […]. The class given is functional.
Assay [11] has as its system Aphis gossypii. In words: Synergist ratio, ratio of LC50 for Aphis gossypii clone NM1 (cotton aphid) in presence of S,S,S-tri-n-butyl phosphorotrithioate to LC50 for Aphis gossypii clone NM1. The class given is functional.
The subject of assay [12] is Aphis gossypii. In words: Synergist ratio, ratio of LC50 for Aphis gossypii clone NM1 (cotton aphid) in presence of piperonyl butoxide to LC50 for Aphis gossypii clone NM1. The class given is functional.
In assay [13] the test system is Aphis gossypii. Put plainly: Synergist ratio, ratio of LC50 for Aphis gossypii clone Auber (cotton aphid) in presence of piperonyl butoxide to LC50 for Aphis gossypii clone Auber. The class given is functional.
Assay [14] has as its system Aphis gossypii. Put plainly: Synergist ratio, ratio of LC50 for Aphis gossypii clone Auber (cotton aphid) in presence of S,S,S-tri-n-butyl phosphorotrithioate to LC50 for Aphis gossypii clone Auber. The class given is functional.
The test system of assay [15] is Aphis gossypii. In words: Insecticidal activity against Aphis gossypii clone Burk (cotton aphid) in egg plant leaf assessed as mortality after 24 hr by leaf disk assay in presence of S,S,S-tri-n-butyl phosphorotrithioate. The class given is functional.
In assay [16] the test system is Aphis gossypii. The class given is functional. This is another data set of the same source.
Assay [17] relates to Aphis gossypii. In kind it is functional. This is another data set of the same source.
Assay [18] relates to Aphis gossypii. The class given is functional. The source holds these as a separate data set.
For assay [19], the system named is Aphis gossypii. Put plainly: Insecticidal activity against Aphis gossypii clone Ivo (cotton aphid) in cotton plant leaf assessed as mortality after 24 hr by leaf disk assay. In kind it is functional.
Assay [20] deals with Aphis gossypii. In words: Insecticidal activity against Aphis gossypii clone Burk (cotton aphid) in cotton plant leaf assessed as mortality after 24 hr by leaf disk assay. In kind it is functional.
Assay [21] has as its system Aphis gossypii. Put plainly: Insecticidal activity against Aphis gossypii clone Auber (cotton aphid) in egg plant leaf assessed as mortality after 24 hr by leaf disk assay. The class given is functional.
For assay [22], the system named is Aphis gossypii. Put plainly: Insecticidal activity against Aphis gossypii clone PsP4 (cotton aphid) in pepper plant leaf assessed as mortality after 24 hr by leaf disk assay. The class given is functional.
Assay [23] concerns Aphis gossypii. In kind it is functional, clone C4.
For assay [24], the system named is Aphis gossypii. The class given is functional, clone C9.
Assay [25] deals with Aphis gossypii. The class given is functional, clone NM1.

As to `CC1(C)C(C=C(Cl)Cl)C1C(=O)OC(C#N)c1cccc(Oc2ccccc2)c1` (stereo not drawn) [ALPHA-CYPERMETHRIN], the LC50 in assay [1] came to 207 ugAi/ml; in [2], 23360 ugAi/ml; in assay [3] it was 8.5 ugAi/ml; in assay [4], 119 ugAi/ml; in assay [5], 13.2 ugAi/ml; in [15], 18516 ugAi/ml. For the same compound, the LC50 in assay [19] was 7.1 ugAi/ml; in assay [20], 6763.5 ugAi/ml; in assay [21], 504 ugAi/ml; in assay [22], 19.7 ugAi/ml; in assay [23] it was 6.3 ugAi/ml; in assay [24], 7.2 ugAi/ml. Further, in assay [25], the LC50 worked out at 10.9 ugAi/ml. The RatioLC50 in [6] is reported as 0.5; in assay [7] it was 473; in [8] it was 41.2; in assay [9], 1.3; in assay [10] it was 1; in assay [11], 1.3. For the same compound, the RatioLC50 in [12] is on record as 0.8; in assay [13], 4.2; in assay [14] it was 2.4; in [16], 1.4; in assay [17], 0.4; in assay [18], 0.5.
For the compound `C/C(=N\C#N)N(C)Cc1ccc(Cl)nc1`, the RatioLC50 in [6] came out at 1; in assay [7], 1.6; in [8], 2; in assay [16], 0.6; in assay [17], 0.9; in [18], 1.1. In addition, the LC50 turned out to be 4 ugAi/ml in assay [19]; 6.4 ugAi/ml in assay [20]; 7.9 ugAi/ml in assay [21]; 2.5 ugAi/ml in [22]; 3.7 ugAi/ml in assay [23]; 4.3 ugAi/ml in assay [24]. This compound returned an LC50 in assay [25] of 3.9 ugAi/ml.
With `CCCCN(CCCC)SN(C)C(=O)Oc1cccc2c1OC(C)(C)C2` [CARBOSULFAN], the RatioLC50 turned out to be 0.5 in assay [6]; 0.7 in assay [7]; 0.9 in assay [8]; 0.9 in assay [16]; 1.2 in [17]; 1.2 in assay [18]. For the same compound, the LC50 in assay [19] came out at 2.2 ugAi/ml; in assay [20], 3.1 ugAi/ml; in assay [21], 4 ugAi/ml; in assay [22], 4.2 ugAi/ml; in assay [23], 5.7 ugAi/ml; in [24], 5.6 ugAi/ml. In assay [25], this compound showed an LC50 of 4.6 ugAi/ml.
As to `Clc1ccc(C(c2ccc(Cl)cc2)C(Cl)(Cl)Cl)cc1` [CHLOROPHENOTHANE], the RatioLC50 is recorded as 148.7 in assay [7] and 1.4 in [8]. For the same compound, the LC50 in [20] is given as 30738.4 ugAi/ml; in assay [21], 291.6 ugAi/ml; in assay [25], 206.7 ugAi/ml.
With `CCCSP(=O)(OCC)Oc1ccc(Br)cc1Cl` (centres undefined) [PROFENOFOS], the RatioLC50 in [6] turned out to be 0.4; in assay [7] it was 4.4; in [8], 5.3; in assay [16], 6.8; in assay [17] it was 1.3; in assay [18] it was 1.5. Also, the LC50 in [19] came to 4.3 ugAi/ml; in assay [20], 50 ugAi/ml; in assay [21], 59.6 ugAi/ml; in [22], 77.1 ugAi/ml; in [23] it was 15 ugAi/ml; in assay [24], 17.2 ugAi/ml. The LC50 in [25] stood at 11.3 ugAi/ml.
